Data reported in patent US20250114460A1, “NOVEL PLK1 DEGRADATION INDUCING COMPOUND” (UPPTHERA, INC., priority 2021, published 2025).

These compounds were tested against T1, PLK1 (Homo sapiens, UniProt P53350) (assay: Luciferase assay for PLK1 in HeLa LgBit (Plk1-HiBit KI) cell line). Conditions: 300 nM compound, luminescence after 9 hours.
T1 construct: endogenous in cells; host or cells: HeLa LgBit (Plk1-HiBit KI): HeLa stably expressing LgBit, with a CRISPR/Cas9 knock-in of HiBit at the endogenous PLK1 locus
T1 sequence (P53350 whole entry): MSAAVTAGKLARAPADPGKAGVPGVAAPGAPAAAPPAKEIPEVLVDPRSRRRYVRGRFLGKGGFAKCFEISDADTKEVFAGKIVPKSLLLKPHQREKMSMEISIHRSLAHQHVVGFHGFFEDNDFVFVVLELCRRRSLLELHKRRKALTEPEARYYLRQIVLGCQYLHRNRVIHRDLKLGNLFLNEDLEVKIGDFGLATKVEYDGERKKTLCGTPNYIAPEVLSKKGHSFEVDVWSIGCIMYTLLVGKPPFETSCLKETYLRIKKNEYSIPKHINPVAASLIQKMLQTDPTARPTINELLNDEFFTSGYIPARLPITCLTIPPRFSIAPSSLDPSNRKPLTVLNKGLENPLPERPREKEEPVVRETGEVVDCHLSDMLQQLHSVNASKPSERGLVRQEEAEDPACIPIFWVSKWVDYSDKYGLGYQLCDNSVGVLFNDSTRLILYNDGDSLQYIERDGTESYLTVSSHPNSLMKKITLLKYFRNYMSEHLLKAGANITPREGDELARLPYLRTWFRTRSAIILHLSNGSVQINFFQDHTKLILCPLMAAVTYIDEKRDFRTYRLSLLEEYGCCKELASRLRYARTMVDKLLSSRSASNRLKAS
Type: cell-based
Method: 2. Luciferase Assay for PLK1
(1) Preparation and Culture of HeLa LgBit (Plk1-HiBit KI) Cell Line
A HeLa cell line in which the LgBit vector was transfected and expressed stably was prepared. Then, after constructing gRNA and donor to express the HiBit amino acid sequence behind the C-terminal of the Plk1 gene, which was inherent in the cell, it was inserted into the cell together with a vector capable of expressing CRISPR/Cas9. Only the cells in which the insertion was completed and knock-in had progressed were selected, sub-cultured and used.
(2) Treatment of Compounds of the Present Invention and Method of Luciferase Assay
In the case of HeLa LgBit (Plk1-HiBit KI), the compounds were treated after being released after thymidine block, and the process was as follows. Thymidine (Sigma-Aldrich Cat. No. T9250-5G) was completely dissolved in DW and used in the experiment. For thymidine block, the products were treated with 2 mM of thymidine and then incubated for 24 hours. For release and chemical treatment, the medium was suctioned and washed with 1×PBS. TrypLE™ was added and incubated in 37° C. CO2 incubator for 5 min. Cells neutralized by adding complete media were counted through a counter. For each well of a 96-well culture plate (SPL), 3.3×10^4 cells and a total medium volume of 150 μL were seeded and incubated in a CO2 incubator.
Each cell line was incubated in a CO2 incubator for 18 hours, and Endurazine was added to each well to make up 4% of the total volume. After adding the compound of the present invention in a 96-well white plate (SPL) to a concentration of 300 nM, the wavelength of the plate reader (BMG Labtech, CLARIOstar Plus) was set to […], and then the luminescence was tracked in real time.
In Table 2, Activity represents the ratio of the luminescense value of each Exemplary Compound treatment group to DMSO treatment group (+++: <0.3, ++<0.6, +<0.7).
With C=CC[C@H]1CN(C2CCCC2)c2nc(Nc3ccc(C(=O)NC4CCN(C(=O)CCN5CCN(c6cccc7c6C(=O)N(C6CCC(=O)NC6=O)C7=O)CC5)CC4)cc3OC)ncc2N(C)C1=O (single isomer, unassigned) [Compound 70, 4-((7-allyl-9-cyclopentyl-5-methyl-6-oxo-6,7,8,9-tetrahydro-5H-pyrimido[4,5-b][1, 4]diazepin-2-yl)amino)-N-(1-(3-(4-(2-(2,6-dioxopiperidin-3-yl)-1,3-dioxoisoindolin-4-yl)piperazin-1-yl)propanoyl)piperidin-4-yl)-3-methoxybenzamide] the “Activity: ratio of the luminescense value of each Exemplary Compound treatment group to DMSO treatment group” value (shortened to “Activity: ratio”) was “++ (++<0.6)”. In the case of C=C[C@]1(F)CN(C2CCCC2)c2nc(Nc3ccc(C(=O)NC4CCN(C(=O)CCN5CCN(c6cccc7c6C(=O)N(C6CCC(=O)NC6=O)C7=O)CC5)CC4)cc3OC)ncc2N(C)C1=O (single isomer, unassigned) [Compound 109], the “Activity: ratio” value is reported as “+ (+<0.7)”. In the case of COc1cc(C(=O)NC2CCN(CCNc3cccc4c3C(=O)N(C3CCC(=O)NC3=O)C4=O)CC2)c(F)cc1Nc1ncc2c(n1)N(C1CCCC1)CC(F)(F)C(=O)N2C (stereo not drawn) [Compound 1, 4-((9-cyclopentyl-7,7-difluoro-5-methyl-6-oxo-6,7,8,9-tetrahydro-5H-pyrimido[4,5-b][1,4]diazepin-2-yl)amino)-N-(1-(2-((2-(2,6-dioxopiperidin-3-yl)-1,3-dioxoisoindolin-4-yl)amino)ethyl)piperidin-4-yl)-2-fluoro-5-methoxybenzamide], the “Activity: ratio” value is reported as “++ (++<0.6)”. In the case of COc1cc(C(=O)NC2CCN(CCOc3ccc4c(c3)C(=O)N(C3CCC(=O)NC3=O)C4=O)CC2)c(F)cc1Nc1ncc2c(n1)N(C1CCCC1)CC(F)(F)C(=O)N2C (stereo not drawn) [Compound 3, 4-((9-cyclopentyl-7,7-difluoro-5-methyl-6-oxo-6,7,8,9-tetrahydro-5H-pyrimido[4,5-b][1,4]diazepin-2-yl)amino)-N-(1-(2-((2-(2,6-dioxopiperidin-3-yl)-1,3-dioxoisoindolin-5-yl)oxy)ethyl)piperidin-4-yl)-2-fluoro-5-methoxybenzamide], the “Activity: ratio” value is reported as “++ (++<0.6)”. In the case of COc1cc(C(=O)NC2CCN(CCSc3cccc4c3C(=O)N(C3CCC(=O)NC3=O)C4=O)CC2)c(F)cc1Nc1ncc2c(n1)N(C1CCCC1)CC(F)(F)C(=O)N2C (stereo not drawn) [Compound 11, 4-((9-cyclopentyl-7,7-difluoro-5-methyl-6-oxo-6,7,8,9-tetrahydro-5H-pyrimido[4,5-b][1,4]diazepin-2-yl)amino)-N-(1-(2-((2-(2,6-dioxopiperidin-3-yl)-1,3-dioxoisoindolin-4-yl)thio)ethyl)piperidin-4-yl)-2-fluoro-5-methoxybenzamide], the “Activity: ratio” value is reported as “++ (++<0.6)”. In the case of COc1cc(C(=O)NC2CCN(CCCc3cccc4c3C(=O)N(C3CCC(=O)NC3=O)C4=O)CC2)ccc1Nc1ncc2c(n1)N(C1CCCC1)CC(F)(F)C(=O)N2C (stereo not drawn) [Compound 14, 4-((9-cyclopentyl-7,7-difluoro-5-methyl-6-oxo-6,7,8,9-tetrahydro-5H-pyrimido[4,5-b][1,4]diazepin-2-yl)amino)-N-(1-(3-(2-(2,6-dioxopiperidin-3-yl)-1,3-dioxoisoindolin-4-yl)propyl)piperidin-4-yl)-3-methoxybenzamide], the “Activity: ratio” value is reported as “++ (++<0.6)”. In the case of COc1cc(C(=O)N[C@H]2CC[C@@H](N(C)CCCNc3cccc4c3C(=O)N(C3CCC(=O)NC3=O)C4=O)CC2)ccc1Nc1ncc2c(n1)N(C1CCCC1)CC(F)(F)C(=O)N2C (stereo partly drawn) [Compound 16, 4-((9-cyclopentyl-7,7-difluoro-5-methyl-6-oxo-6,7,8,9-tetrahydro-5H-pyrimido[4,5-b][1,4]diazepin-2-yl)amino)-N-((1s,4s)-4-((3-((2-(2,6-dioxopiperidin-3-yl)-1,3-dioxoisoindolin-4-yl)amino)propyl)(methyl)amino)cyclohexyl)-3-methoxybenzamide], the “Activity: ratio” value is reported as “+ (+<0.7)”. With COc1cc(C(=O)NC2CCN(CCOCCOCCOCCOCCOCCOCCNc3cccc4c3C(=O)N(C3CCC(=O)NC3=O)C4=O)CC2)c(F)cc1Nc1ncc2c(n1)N(C1CCCC1)CC(F)(F)C(=O)N2C (stereo not drawn) [Compound 17, 4-((9-cyclopentyl-7,7-difluoro-5-methyl-6-oxo-6,7,8,9-tetrahydro-5H-pyrimido[4,5-b][1,4]diazepin-2-yl)amino)-N-(1-(20-((2-(2,6-dioxopiperidin-3-yl)-1,3-dioxoisoindolin-4-yl)amino)-3,6,9,12,15,18-hexaoxaicosyl)piperidin-4-yl)-2-fluoro-5-methoxybenzamide] the “Activity: ratio” value was “++ (++<0.6)”. COc1cc(C(=O)NC2CCN(Cc3ccc(COc4ccc5c(c4)CN([C@H]4CCC(=O)NC4=O)C5=O)cc3)CC2)ccc1Nc1ncc2c(n1)N(C1CCCC1)CC(F)(F)C(=O)N2C [Compound 22, (S)-4-((9-cyclopentyl-7,7-difluoro-5-methyl-6-oxo-6,7,8,9-tetrahydro-5H-pyrimido[4,5-b][1,4]diazepin-2-yl)amino)-N-(1-(4-(((2-(2,6-dioxopiperidin-3-yl)-1-oxoisoindolin-5-yl)oxy)methyl)benzyl)piperidin-4-yl)-3-methoxybenzamide] was tested, and the “Activity: ratio” value was “+ (+<0.7)”. COc1cc(C(=O)NC2CCN(C(=O)CCNc3cccc4c3C(=O)N(C3CCC(=O)NC3=O)C4=O)CC2)c(F)cc1Nc1ncc2c(n1)N(C1CCCC1)CC(F)(F)C(=O)N2C (stereo not drawn) [Compound 24, 4-((9-cyclopentyl-7,7-difluoro-5-methyl-6-oxo-6,7,8,9-tetrahydro-5H-pyrimido[4,5-b][1,4]diazepin-2-yl)amino)-N-(1-(3-((2-(2,6-dioxopiperidin-3-yl)-1,3-dioxoisoindolin-4-yl)amino)propanoyl)piperidin-4-yl)-2-fluoro-5-methoxybenzamide] was tested, and the “Activity: ratio” value was “+ (+<0.7)”. With CN1C(=O)C(F)(F)CN(C2CCCC2)c2nc(Nc3ccc(C(=O)NC4CCN(C(=O)CCCNc5cccc6c5C(=O)N(C5CCC(=O)NC5=O)C6=O)CC4)cc3F)ncc21 (stereo not drawn) [Compound 27, 4-((9-cyclopentyl-7,7-difluoro-5-methyl-6-oxo-6,7,8,9-tetrahydro-5H-pyrimido[4,5-b][1,4]diazepin-2-yl)amino)-N-(1-(4-((2-(2,6-dioxopiperidin-3-yl)-1,3-dioxoisoindolin-4-yl)amino)butanoyl)piperidin-4-yl)-3-fluorobenzamide] the “Activity: ratio” value was “++ (++<0.6)”. In the case of COc1cc(C(=O)NC2CCN(C(=O)CCCNc3ccc4c(c3)C(=O)N(C3CCC(=O)NC3=O)C4=O)CC2)c(F)cc1Nc1ncc2c(n1)N(C1CCCC1)CC(F)(F)C(=O)N2C (stereo not drawn) [Compound 35, 4-((9-cyclopentyl-7,7-difluoro-5-methyl-6-oxo-6,7,8,9-tetrahydro-5H-pyrimido[4,5-b][1,4]diazepin-2-yl)amino)-N-(1-(4-((2-(2,6-dioxopiperidin-3-yl)-1,3-dioxoisoindolin-5-yl)amino)butanoyl)piperidin-4-yl)-2-fluoro-5-methoxybenzamide], the “Activity: ratio” value is reported as “+ (+<0.7)”.
